In PubChem BioAssay (NCI):
Where “and” joins values, the source holds several entries; their conditions need not be identical. Equal values may be shown once.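 Test compounds were applied to cells in 96-well plates for 48 hours at 5 doses. Abbreviation: GI50, concentration required for 50% inhibition of growth. At the TGI there is no net growth.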

Tests used:
Experiment in all cases: NCI anticancer screen, dose series, 48 h
[1] = test system: 786-0 renal
[2] = test system: A498 renal
[3] = test system: A549 NSCLC
[4] = test system: HOP-62 NSCLC
[5] = test system: IGROV1 ovarian
[6] = test system: RPMI-8226 leukemia
[7] = test system: RXF 393 renal
[8] = test system: SK-MEL-5 melanoma
[9] = test system: SNB-75 CNS
[10] = test system: T-47D breast

SMILES	GI50 [1]	TGI [1]	GI50 [2]	TGI [2]	GI50 [3]	TGI [3]	GI50 [4]	TGI [4]	GI50 [5]	TGI [5]	GI50 [6]	TGI [6]	GI50 [7]	TGI [7]	GI50 [8]	TGI [8]	GI50 [9]	TGI [9]	GI50 [10]	TGI [10]
COc1ccc(CNC(=O)c2ccc(-c3cc(-c4nnc(C)o4)ccc3C)cc2)cc1	> 25 µM	> 25 µM	8.22 µM	> 25 µM	22.8 µM	> 25 µM	17.5 µM	> 25 µM	> 22.6 µM	> 25 µM	12.6 µM	> 25 µM	> 25 µM	> 25 µM	6.17 µM	> 19.9 µM	14.2 µM	> 25 µM	7.01 µM	> 25 µM
O=C(Nc1nc2ccc(F)cc2s1)c1cccnc1Nc1ccc(Cl)cc1Cl	3.28 µM	12.2 µM	2.13 µM	6.84 µM	3.51 µM	16.1 µM	3.05 µM	12.8 µM	3.66 µM	> 23.6 µM	1.49 µM	9.07 µM	3.31 µM	11.7 µM	1.87 µM	6.11 µM	1.96 µM	9.14 µM	1.61 µM	8.01 µM
CCCC(=O)Nc1cn(COC)c(C(=O)N2C[C@H]3C[C@@]34C2=CC(=O)c2[nH]cc(C)c24)n1	1.98 µM	–	–	17.9 µM	–	50 µM and > 100 µM	4.52 µM	50 µM and > 100 µM	6.68 µM	50 µM and > 100 µM	3.21 µM	22.8 µM and > 100 µM	3.05 µM	26.9 µM and 8.82 µM	2.53 µM	16 µM and 9.93 µM	32 µM	21.6 µM and > 100 µM	2.91 µM	25.4 µM and 34.8 µM
O=c1c2ccccc2c(=O)c2c1sc1c(=O)c3ccc(O)cc3c(=O)c12	1.8 µM	4.44 µM	0.574 µM	1.72 µM	0.222 µM	0.497 µM	0.15 µM	0.285 µM	2.1 µM	6.84 µM	1.42 µM	5.25 µM	1.63 µM	4.3 µM	0.127 µM	0.256 µM	0.183 µM	0.4 µM	2.04 µM	6.3 µM
Oc1cccc(-c2nc(N3CCOCC3)c3oc4ncccc4c3n2)c1	0.231 µM and 0.246 µM	1.67 µM and 1.28 µM	1.96 µM	9.35 µM and 3.98 µM	0.317 µM and 0.225 µM	–	0.234 µM and 0.227 µM	3.7 µM and 5.53 µM	0.327 µM and 0.425 µM	1.47 µM and 2.23 µM	0.237 µM and 0.298 µM	> 38.3 µM	0.0796 µM and 0.116 µM	0.361 µM and 0.55 µM	0.263 µM and 0.346 µM	1.2 µM and 2.44 µM	0.0401 µM and < 0.0151 µM	0.311 µM and 0.114 µM	0.212 µM and 0.192 µM	1.34 µM and 0.814 µM
Cc1cc2c(-c3nc4ccccn4c3NC34CC5CC(CC(C5)C3)C4)c(O)c(O)cc2c(O)c1-c1c(C)cc2c(-c3nc4ccccn4c3NC34CC5CC(CC(C5)C3)C4)c(O)c(O)cc2c1O	0.932 µM	5.09 µM	0.817 µM	> 25 µM	0.255 µM	> 25 µM	0.724 µM	> 25 µM	0.883 µM	> 25 µM	0.355 µM	> 25 µM	0.464 µM	2.63 µM	0.564 µM	1.51 µM	1.04 µM	19.1 µM	0.187 µM	2.49 µM
NC1(C(=O)O)CSSC1	21.6 µM	> 100 µM	2.53 µM	7.27 µM	3.37 µM	> 100 µM	2.92 µM	9.83 µM	3.91 µM	29.9 µM	16.8 µM	50.8 µM	3.13 µM	11.1 µM	1.91 µM	3.68 µM	2.91 µM	21.5 µM	32.1 µM	> 100 µM
COc1ccc(-c2nn3ncccc3c2-c2ccnc(Nc3cccc(C(F)(F)F)c3)n2)cc1	9.98 µM	> 25 µM	4.41 µM	> 20.3 µM	9.38 µM	> 25 µM	16.8 µM	> 25 µM	4.39 µM	> 20.2 µM	7.67 µM	> 25 µM	5.76 µM	24.5 µM	5.27 µM	14.5 µM	> 16.3 µM	> 25 µM	6.53 µM	> 25 µM
Cc1cc([C@H](C)Nc2nccc(N3C(=O)OC[C@@H]3[C@H](C)F)n2)ncc1-c1ccnc(C(F)(F)F)c1	42.4 µM	> 100 µM	15.6 µM	92.1 µM	29.8 µM	> 100 µM	28.7 µM	> 100 µM	25.9 µM	> 100 µM	16.7 µM	> 100 µM	11.3 µM	86.4 µM	12.1 µM	33 µM	88.2 µM	> 100 µM	16.4 µM	> 100 µM
CN1CCN(CCCOc2ccc3ncnc(Nc4ccc(Oc5cccc(F)c5)c(Cl)c4)c3c2)CC1	1.61 µM	3 µM	1.25 µM	2.74 µM	1.56 µM	3.24 µM	1.75 µM	3.76 µM	0.711 µM	2.23 µM	1.58 µM	4.86 µM	1.56 µM	3.1 µM	1.62 µM	3.01 µM	1.4 µM	2.75 µM	1.34 µM	4.35 µM
CCOC(=O)C(=Cc1c(-c2ccccc2)[nH]c2ccccc12)C(=O)OCC	11.7 µM	37.2 µM	15.8 µM	55.6 µM	6.34 µM	24.5 µM	4.27 µM	14.1 µM	5.56 µM	23.7 µM	0.219 µM	3.28 µM	3.1 µM	12.1 µM	3.81 µM	14.2 µM	6.55 µM	28.4 µM	2.62 µM	8.43 µM
NCCn1c2c(c3ccccc3c1=O)C(=O)c1ccccc1-2	0.552 µM	1.78 µM	0.476 µM	5.49 µM	–	0.676 µM	0.369 µM	1.1 µM	0.592 µM	> 45.8 µM	0.338 µM	1.5 µM	1.87 µM	6.55 µM	0.386 µM	1.9 µM	1.04 µM	3.2 µM	0.308 µM	1.28 µM
Cc1cc(C)c2nccc(NCCCN(C)C)c2c1[N+](=O)[O-]	–	> 100 µM	–	> 100 µM	–	> 100 µM	–	> 100 µM	–	92.3 µM	–	> 100 µM	–	47.8 µM	–	26.6 µM	–	> 100 µM	–	> 100 µM
